According to paper PMC1664607 (PLoS Medicine, 2006):
≈ marks a conversion by molar mass, not a printed value.

Assays:
[1] = test system: E. coli WP2 uvr A; assay: Bacterial reverse mutation (BRM) test; format: cell-based
Description: (§1) The BRM test was performed in accordance with OECD Guideline 471 using Salmonella tyiphimurium TA98, TA100, TA1535, and TA1537, and Escherichia coli WP2 uvrA [11]. Each bacterial strain was pre-cultured at 37 °C for 18 h using a nutrient broth (Nissui Pharmaceutical; http://www.nissui-pharm.co.jp/index_e.html). After adjustment to 2.4 at OD660 nm, each bacterial suspension was added to a test tube containing the designated compound in the absence or presence of rat liver microsome (S9) mix. After a 20-min incubation at 37 °C, top agar was added to each test tube and the contents were poured into minimum essential medium (Oriental Yeast; http://www.oyc.co.jp/e/index.htm). The number of revertants was counted 48 h after incubation at 37 °C.

[2] = test system: S. typhimurium TA1535; assay: Bacterial reverse mutation (BRM) test; format: cell-based
Description: as §1

[3] = test system: S. typhimurium TA1537; assay: Bacterial reverse mutation (BRM) test; format: cell-based
Description: as §1

[4] = test system: S. typhimurium TA98; assay: Bacterial reverse mutation (BRM) test; format: cell-based
Description: as §1

[5] = test system: M. tuberculosis ATCC 35837 (H37Rv-E-R); assay: microbe, parasite or virus in culture; format: cell-based; conditions: Mycobacterium tuberculosis, 336 h
[6] = test system: M. tuberculosis ATCC 35820 (H37Rv-S-R); assay: microbe, parasite or virus in culture; format: cell-based; conditions: Mycobacterium tuberculosis, 336 h
[7] = test system: intracellular M. tuberculosis H37Rv in THP-1 cells; assay: Activity against intracellular mycobacteria, 4-h pulsed exposure; format: cell-based, M. tuberculosis; human THP-1 cells; conditions: further 68-h culture
[8] = molecular target: T1, CYP2A6 (Homo sapiens, UniProt P11509); assay: Coumarin 7-hydroxylation in human liver microsomes; format: in vitro ADME; conditions: 2 μM coumarin
T1 construct: Standard incubation mixtures of 0.5 ml contained microsomal protein (0.1–0.5 mg); from tissue; host or cells: pooled human liver microsomes (ten donors)
T1 sequence (P11509 1-494): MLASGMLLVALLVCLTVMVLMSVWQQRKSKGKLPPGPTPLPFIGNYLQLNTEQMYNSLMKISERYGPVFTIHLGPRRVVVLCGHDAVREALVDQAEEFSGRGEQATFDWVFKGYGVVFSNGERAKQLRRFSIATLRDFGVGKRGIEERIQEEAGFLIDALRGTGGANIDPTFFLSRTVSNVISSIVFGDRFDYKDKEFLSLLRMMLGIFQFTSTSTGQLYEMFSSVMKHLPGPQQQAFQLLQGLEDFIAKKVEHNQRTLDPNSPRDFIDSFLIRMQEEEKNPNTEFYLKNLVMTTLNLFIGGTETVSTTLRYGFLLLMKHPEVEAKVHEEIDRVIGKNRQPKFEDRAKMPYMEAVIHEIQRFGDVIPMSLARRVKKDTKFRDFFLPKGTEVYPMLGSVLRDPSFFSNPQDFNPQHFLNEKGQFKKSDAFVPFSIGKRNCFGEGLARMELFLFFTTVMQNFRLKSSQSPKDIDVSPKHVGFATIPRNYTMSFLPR

[9] = molecular target: T2, CYP2C19 (Homo sapiens, UniProt P33261); assay: S-mephenytoin 4′ -hydroxylation in human liver microsomes; format: in vitro ADME; conditions: 100 μM S-mephenytoin
T2 construct: Standard incubation mixtures of 0.5 ml contained microsomal protein (0.1–0.5 mg); from tissue; host or cells: pooled human liver microsomes (ten donors)
T2 sequence (P33261 whole entry): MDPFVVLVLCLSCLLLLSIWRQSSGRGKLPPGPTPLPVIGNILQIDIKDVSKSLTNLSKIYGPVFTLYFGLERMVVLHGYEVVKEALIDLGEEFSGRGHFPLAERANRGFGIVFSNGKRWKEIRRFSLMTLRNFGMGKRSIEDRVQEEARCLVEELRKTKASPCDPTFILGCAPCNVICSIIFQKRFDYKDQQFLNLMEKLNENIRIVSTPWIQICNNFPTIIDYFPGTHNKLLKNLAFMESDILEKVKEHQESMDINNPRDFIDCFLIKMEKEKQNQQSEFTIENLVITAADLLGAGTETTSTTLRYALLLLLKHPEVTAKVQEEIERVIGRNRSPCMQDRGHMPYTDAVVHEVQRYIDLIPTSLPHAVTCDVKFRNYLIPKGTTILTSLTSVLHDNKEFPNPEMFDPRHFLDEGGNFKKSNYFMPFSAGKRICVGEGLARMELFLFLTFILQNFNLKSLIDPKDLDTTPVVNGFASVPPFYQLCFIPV

C[C@]1(COc2ccc(N3CCC(Oc4ccc(OC(F)(F)F)cc4)CC3)cc2)Cn2cc([N+](=O)[O-])nc2O1 [OPC-67683, (R)-2-methyl-6-nitro-2-(4-[4-(4-trifluoromethoxyphenoxy)piperidin-1-yl]phenoxymethyl}-2,3-dihydroimidazo[2,1-b]oxazole]
Revertants/Plate ([1]; S9 mix +, 312.5 μg/plate): 23 Revertants/Plate | Revertants/Plate ([1]; S9 mix +, 625 μg/plate): 20 Revertants/Plate | Revertants/Plate ([1]; S9 mix +, 1,250 μg/plate): 25 Revertants/Plate | Revertants/Plate ([1]; S9 mix +, 2,500 μg/plate): 23 Revertants/Plate | Revertants/Plate ([1]; S9 mix +, 5,000 μg/plate): 29 Revertants/Plate | Revertants/Plate ([1]; S9 mix −, 312.5 μg/plate): 23 Revertants/Plate | Revertants/Plate ([1]; S9 mix −, 625 μg/plate): 25 Revertants/Plate | Revertants/Plate ([1]; S9 mix −, 1,250 μg/plate): 20 Revertants/Plate | Revertants/Plate ([1]; S9 mix −, 2,500 μg/plate): 24 Revertants/Plate | Revertants/Plate ([1]; S9 mix −, 5,000 μg/plate): 24 Revertants/Plate | Revertants/Plate ([2]; S9 mix +, 625 μg/plate): 6 Revertants/Plate | Revertants/Plate ([2]; S9 mix +, 2,500 μg/plate): 8 Revertants/Plate | Revertants/Plate ([2]; S9 mix +, 5,000 μg/plate): 9 Revertants/Plate | Revertants/Plate ([2]; S9 mix −, 312.5 μg/plate): 6 Revertants/Plate | Revertants/Plate ([2]; S9 mix −, 625 μg/plate): 9 Revertants/Plate | Revertants/Plate ([2]; S9 mix −, 2,500 μg/plate): 7 Revertants/Plate | Revertants/Plate ([2]; S9 mix −, 5,000 μg/plate): 6 Revertants/Plate | Revertants/Plate ([3]; S9 mix +, 312.5 μg/plate): 73 Revertants/Plate | Revertants/Plate ([3]; S9 mix +, 625 μg/plate): 72 Revertants/Plate | Revertants/Plate ([3]; S9 mix +, 1,250 μg/plate): 66 Revertants/Plate | Revertants/Plate ([3]; S9 mix +, 2,500 μg/plate): 63 Revertants/Plate | Revertants/Plate ([3]; S9 mix +, 5,000 μg/plate): 74 Revertants/Plate | Revertants/Plate ([3]; S9 mix −, 312.5 μg/plate): 60 Revertants/Plate | Revertants/Plate ([3]; S9 mix −, 625 μg/plate): 62 Revertants/Plate | Revertants/Plate ([3]; S9 mix −, 1,250 μg/plate): 54 Revertants/Plate | Revertants/Plate ([3]; S9 mix −, 2,500 μg/plate): 61 Revertants/Plate | Revertants/Plate ([3]; S9 mix −, 5,000 μg/plate): 63 Revertants/Plate | Revertants/Plate ([4]; S9 mix +, 312.5 μg/plate): 31 Revertants/Plate | Revertants/Plate ([4]; S9 mix +, 625 μg/plate): 31 Revertants/Plate | Revertants/Plate ([4]; S9 mix +, 1,250 μg/plate): 30 Revertants/Plate | Revertants/Plate ([4]; S9 mix +, 2,500 μg/plate): 31 Revertants/Plate | Revertants/Plate ([4]; S9 mix +, 5,000 μg/plate): 35 Revertants/Plate | Revertants/Plate ([4]; S9 mix −, 312.5 μg/plate): 29 Revertants/Plate | Revertants/Plate ([4]; S9 mix −, 625 μg/plate): 29 Revertants/Plate | Revertants/Plate ([4]; S9 mix −, 1,250 μg/plate): 34 Revertants/Plate | Revertants/Plate ([4]; S9 mix −, 2,500 μg/plate): 37 Revertants/Plate | Revertants/Plate ([4]; S9 mix −, 5,000 μg/plate): 31 Revertants/Plate | MIC [5]: 0.012 µg/mL (≈ 0.0225 µM) | MIC [6]: 0.012 µg/mL (≈ 0.0225 µM) | Activity against intracellular M. tuberculosis H37Rv [7]: highly active | Percent of Control ([8]; 10 μM): 103.1% of Control | Percent of Control ([8]; 30 μM): 97.8% of Control | Percent of Control ([9]; 10 μM): 113.3% of Control | Percent of Control ([9]; 100 μM): 107.6% of Control
